These results are taken from paper PMC4104761, “Identification of a novel lytic peptide for the treatment of solid tumours” (Genes & Cancer, 2014).

The test system of one data set is mammary carcinoma AU 565. In words: MTT viability assay. To be noted: 20 µg Cypep-1/ml, 60 min incubation, most sensitive cell line. The class given is cell-based, human. As to the method: (§1) Cypep-1 was tested in various concentrations on a total of 17 cell lines, which included 13 human and 1 murine tumour cell line(s), as well as 3 normal human cell lines. Listed in detail: 4 human osteosarcoma (U2OS, SaOS2, HOS and MNNG-HOS), 6 human glioblastoma (A172, GaMg, LN18, U87, U373 and T98G) and 3 human mammary carcinoma cell lines (MCF7, AU565 and MDA-MB-468) as well as an additional murine mammary carcinoma cell line (4T1). Furthermore, 3 normal human cell lines were included: 2 normal human fibroblast cell lines (HFF1 and 142Br) as well as normal human osteoblasts (HOB).
(§2) MTT proliferation assays were performed on all cell lines (with the exception of 142Br (human skin fibroblasts)), using monolayers of 15 000 cells in sterile 96 well tissue culture plates (Nunc™, Roskilde, Denmark), respectively. All cells were incubated with Cypep-1 dissolved in 0.9% NaCl, at the following concentrations: 0.1, 0.5, 1.0, 5, 10, 15, 20, 25, 30 and 35µg of Cypep-1 per ml and assayed after 15, 30, 45, 60, 75, 90, 180, 270 and 360 min.

A further data set concerns glioblastoma GaMg. In words: MTT viability assay. The format is cell-based, human. The conditions noted are these: 20 µg Cypep-1/ml, 60 min incubation, least sensitive cell line. The protocol:
as §1, §2

Data set [1] has as its system osteosarcoma cell lines (U2OS, SaOs2). In words: LIVE/DEAD Viability/Cytotoxicity assay. To be noted: morphometric evaluation (Calcein), 35 µg Cypep-1/ml, 3 hours. The class given is cell-based, human. As to the method:
(§3) In order to visualise and quantify the cytotoxic action of Cypep-1 simultaneously, the LIVE/DEAD® Viability/Cytotoxicity Kit was employed according to the manufacturers instructions on monolayers of 30 000 cells in sterile 24 multi well dishes (Nunc™, Roskilde, Denmark), using the selected human osteosarcoma cell lines U2OS and SaOs2 as well as the two human fibroblast cell lines HFF1 (foreskin) and 142Br (skin).
(§4) The monolayer cultures were incubated with Cypep-1 for a period of 3 hours in concentrations ranging from 2.5 µg to 35 µg/ml. The cells were observed using an inverted fluorescence microscope (Nikon Eclipse 2000E, Tokyo, Japan) equipped with FITC (green fluorescence) and TRITC (red fluorescence) filter optics. The fluorescent cells were then photographed at a 10x magnification. The proportions of viable cells (live cells showing green fluorescence due to the presence of Calcein) and dead cells (red fluorescent due to the membrane penetration of Ethidium-Homodimer-1) were quantified using a Lucia G Morphometry System, Version 4.71 (Laboratory Imaging, Prague, Czech Republic).

The test system of data set [2] is 142Br normal human skin fibroblasts. In words: LIVE/DEAD Viability/Cytotoxicity assay. The class given is cell-based. To be noted: morphometric evaluation (Calcein), 35 µg Cypep-1/ml, 3 hours. As to the method:
as §3, §4

Data set [3] concerns HFF1 normal human foreskin fibroblasts. In words: LIVE/DEAD Viability/Cytotoxicity assay. The class given is cell-based. The conditions noted are these: morphometric evaluation (Calcein), 35 µg Cypep-1/ml, 3 hours. As to the method: as §3, §4
In the next data set the test system is all cancer cell lines. In words: MTT viability assay, average of all cancer cell lines. The format is cell-based. The conditions noted are these: 20 µg Cypep-1/ml, 60 min exposure. The protocol:
as §1, §2

Data set [4] deals with HOB normal human osteoblasts. In words: MTT viability assay. To be noted: 20 µg Cypep-1/ml, 60 min incubation. The class given is cell-based. As to the method:
as §1
(§5) All normal human cell lines were purchased from Promo Cell (Heidelberg, Germany). While the normal human foreskin fibroblasts (HFF1) were grown in DMEM medium as described above, the additional human skin fibroblast cell line (142Br) and the normal human osteoblasts (HOB) were cultured in purchased cell type specific growth mediums (Promo Cell, Heidelberg, Germany).
(§6) MTT proliferation assays were performed on all cell lines (with the exception of 142Br (human skin fibroblasts)), using monolayers of 15 000 cells in sterile 96 well tissue culture plates (Nunc™, Roskilde, Denmark), respectively. […]

The subject of data set [5] is HFF1 normal human foreskin fibroblasts. In words: MTT viability assay. The format is cell-based. The conditions noted are these: 20 µg Cypep-1/ml, 60 min incubation. As to the method: as §1, §5, §6
In another data set the test system is normal human cell lines. In words: MTT viability assay, average of normal human cell lines. The class given is cell-based. The conditions noted are these: 20 µg Cypep-1/ml, 60 min exposure. The protocol:
as §1, §2

The subject of the next data set is U87 cells. In words: Comparison of peptide variants by crystal violet staining and light microscopy. The text has this: The sizes of the resulting in silico peptides varied from 10 to 30 amino acids. In order to facilitate their cellular internalisation, a TAT-HIV sequence was attached to the C-terminal ends. All peptides were […]. The peptide library was produced by Cambridge Peptides (Cambridge, UK). The peptides were then screened with the MTT (3-(4,5-dimethylthiazol-2-yl)-2,5-diphenyltetrazolium bromide) assay on U87 human glioma cells. Cellular morphology after peptide exposure was assessed by crystal violet staining and light microscopy. All experiments were performed in triplicate.
To increase the stability of the peptide, two further sub-formulations of the original formula (L-aa, containing only L-amino acids) were created: D-aa (retro inversed, (ri)), a peptide comprised of a backward sequence of the original in silico formula, yet made up solely of D-amino acids and an analogue peptide to original in silico peptide formula, comprised of D-amino acids. D-amino acids are highly resistant to protease mediated degradation and have a low immunogenic response. The respective peptide variants were tested in the following concentrations: 7.5, 10, 15, 20 and 25 µg/ml and incubated for 3 hours.

Turning to YGRKKRRQRRRGKTLRVAKAIYKRYIE [Cypep-1], the results for the average surviving fraction (with mammary carcinoma AU 565; in the data set on glioblastoma GaMg; in [1]) were 7%, 33% and “lower than 5%”, respectively. The figures for the viability in data set [2] and in data set [3] were 81% and 64%, respectively. In the data set with all cancer cell lines, the “surviving fraction, average of all cancer cell lines” value is listed as 18.6%. Moreover, the survival rate in [4] is given as 44%; in data set [5], 66%. The “surviving fraction, average of normal human cell lines” value with normal human cell lines came out at 56%. Further, the “cytotoxic effect / potency by crystal violet staining” value in the data set with U87 cells (U87 cells, 7.5, 10, 15, 20 and 25 µg/ml, 3 hours incubation) was “more potent than the parent L- amino acid formula”. In addition, the “monolayer appearance by light microscopy” value in the data set on U87 cells (U87 monolayer, 15 µg/ml, 3 hours exposure) was “extensive cell loss”.
